Consider six compounds from patent publication US20240207414A1, “DISULFIDE-BASED PRODRUG COMPOUND” (Ludwig-Maximilians-Universitat Munchen, priority 2021, published 2024).

One data set concerns A549 cells. In words: In vitro cell viability assay P19, P20 (resazurin). As to conditions: 48 h. The data set is classed as cell-based, human. How it is done:
(§1) Assay Conditions: Cells (A549 cells for P19 and P20; HeLa cells for P21 and P22) were cultured under standard conditions (Gao, L. et al. Cell Chemical Biology 2021, 28, 1-14. https://doi.org/10.1016/j.chembiol.2020.11.007), left to adhere for 24 h, then P19, P20, P21 or P22 were added from DMSO stock solution and adjusted to 1% vol DMSO. Cells were incubated under standard conditions for 48 h, then 0.20 volume equivalents of a solution of resazurin in PBS (0.15 mg/mL) were added and incubated for 3 hours, then fluorescence (ex 544 nm, em 590 nm) was detected on a fluorescence platereader. Cell viability (%) was calculated relative to a control experiment (no compound) from the fluorescence values.

A short description of data set [1]: Chemical reductant assay: DTT challenge (cell-free). The data set is classed as physicochemical. As to conditions: aq. TE buffer pH 7.4, 37° C., 6 h. From the text:
(§2) This assay (see FIG. 1) examined the stability of disulfide-based reduction-triggered compounds of the invention when exposed to monothiol reductants, primarily the major physiological cellular monothiol GSH, and dithiol reductants like the disulfide reductant dithiothreitol (DTT), as evaluated in a cell-free assay, to determine whether these compounds can be useful for selective release.
(§3) Assay Conditions: A black 96-well plate with black bottom was charged with solutions of fluorophore-releasing reduction-triggered probes that are compounds of the invention (P1, P2, P3, P4 and P5) or that are not compounds of the invention and reveal the performance of prior art systems (X19) (80 μL; 25 μM in aq. TE buffer (pH 7.4) and 1.25% vol DMSO). Solutions of challenge species chosen from the monothiol glutathione (GSH, 0.1-50 mM) and the dithiol reductant dithiothreitol (DTT, 0.1-50 mM) or phosphine reductant tris-(2-carboxyethyl) phosphine (TCEP); (20 μL; 1 mM in aq. TE buffer (pH 7.4) were added and the reaction mixtures were incubated at 37° C. for 6 h while measuring fluorescence intensity over time [F(t)] using a BMG Labtech FLUOstar Omega platereader (λexc=355 nm, Δem=530 nm for PQ-OH-releasing probes X19, P1 and P2; Δexc=485 nm, Δem=530 nm for MF-OH-releasing probes P3 and P4.
(§4) Data Representation: F^max is the maximum possible fluorescence increase corresponding to complete reduction-triggered cargo release, i.e. the fluorescence intensity increase from time zero to signal plateau under TCEP incubation PQ-OH-releasing probes. F(t)/F^max(t) thus gives the timecourse measurements of fluorescence intensity, as a fraction of the maximum possible fluorescence signal. F^sat is the endpoint fluorescence intensity increase for each condition, ie. F^sat=(F(6 h)). F^sat/F^max thus gives the assay endpoint fluorescence intensity increase, as a fraction of the maximum possible fluorescence signal. In the GSH timecourse measurements shown in FIG. 1, all datasets annotated with concentrations only (0.01-10 mM) refer to GSH challenges, while datasets for TCEP positive control (100 μM) and no-reductant control (blank) are shown for comparison. The dose-response plots show F^sat/F^max for the different ratios between probe and GSH or probe and DTT concentrations, with a logarithmic horizontal scale.

The test system of a further data set is HeLa, A549 and MEF cells. In words: Cellular reduction assay (FIG. 3). The data set is classed as cell-based, human, mouse. As to conditions: 100 μM, 1% vol DMSO, cells under ordinary conditions. How it is done:
Assay Conditions: Cells were cultured under standard conditions (Gao, L. et al. Cell Chemical Biology 2021, 28, 1-14. https://doi.org/10.1016/j.chembiol.2020.11.007), left to adhere for 24 h, then compounds were added to 100 μM with 1% vol DMSO. Fluorescence timecourse measurements were acquired as in the chemoreductant assay, with all conditions in triplicates.
Data Representation: F(t)-F(0) is the fluorescence intensity signal increase as compared to time zero signal (fluorescence intensity immediately following compound addition, before probe activation can occur), in arbitrary units although with the same detection settings for all probes releasing the same cargo. This corresponds to reduction-triggered cargo release. “ctrf” indicates cells not treated with probes, as a negative control.

Data set [2] in a line: Chemical reductant assay: GSH challenge (cell-free). The data set is classed as physicochemical. To be noted: aq. TE buffer pH 7.4, 37° C., 6 h, GSH 0.01-10 mM.
Description: as §2, §3, §4

In another data set the test system is HeLa cells. In words: In vitro cell viability assay P21, P22 (resazurin). To be noted: 48 h. The class given is cell-based, human. How it is done: as §1
In general terms: The colour change of resazurin is a common sign of viable cells or microbes.

With `CCc1c2c(nc3ccc(OC(=O)N4CCN(C(=O)CCC(=O)N5CCN(C)CC5)[C@@H]5CSSC[C@@H]54)cc13)-c1cc3c(c(=O)n1C2)COC(=O)[C@]3(O)CC` (racemic) [Compound P20, (R)-4,11-diethyl-4-hydroxy-3,14-dioxo-3,4,12,14-tetrahydro-1H-pyrano[3′,4′:6,7]indolizino[1,2-b]quinolin-9-yl (cis)-4-(4-(4-methylpiperazin-1-yl)-4-oxobutanoyl)hexahydro-[1,2]dithiino[4,5-b]pyrazine-1(2H)-carboxylate], in the data set with A549 cells, the “tolerability in cells compared with Irinotecan” value is “equally well-tolerated in cells as the approved cancer prodrug Irinotecan” and the “toxicity to cells compared with SN-38” value is recorded as “significantly less toxic to cells than the parent compound”.

For `CCc1c2c(nc3ccc(OC(=O)N4CCN[C@@H]5CSSC[C@@H]54)cc13)-c1cc3c(c(=O)n1C2)COC(=O)[C@]3(O)CC` (racemic) [Compound P19, (R)-4,11-diethyl-4-hydroxy-3,14-dioxo-3,4,12,14-tetrahydro-1H-pyrano[3′,4′:6,7]indolizino[1,2-b]quinolin-9-yl (cis)-hexahydro-[1,2]dithiino[4,5-b]pyrazine-1(2H)-carboxylate], in the data set on A549 cells, the “tolerability in cells compared with Irinotecan” value is listed as “equally well-tolerated in cells as the approved cancer prodrug Irinotecan” and the “toxicity to cells compared with SN-38” value is reported as “significantly less toxic to cells than the parent compound”.

As to `O=C(Oc1ccc(Cl)cc1-c1nc2ccc(Cl)cc2c(=O)[nH]1)N1CCN[C@@H]2CSSC[C@H]21` (racemic) [Compound P5, 4-chloro-2-(6-chloro-4-oxo-3,4-dihydroquinazolin-2-yl)phenyl trans-hexahydro-[1,2]dithiino[4,5-b]pyrazine-1(2H)-carboxylate], the “activation / cargo release by dithiol reductant DTT” value in data set [1] is “unusually strong and fast response”. Further, the “cargo release inside cells (fluorescence signal increase over time)” value in the data set on HeLa, A549 and MEF cells is on record as “substantially release cargo inside cells cultured under ordinary conditions”. For the same compound, in data set [2], the “cargo release (fluorescence) when challenged with monothiol reductant GSH” value (“cargo release … with monothiol reductant GSH” for short) was “does release cargo very efficiently”.

As for `COc1ccc2c(c1)Oc1cc(OC(=O)N3CCC[C@@H]4CSSC[C@@H]43)ccc1C21OC(=O)c2ccccc21` (mixture of isomers) [Compound P4, 3′-methoxy-3-oxo-3H-spiro[isobenzofuran-1,9′-xanthen]-6′-yl-cis-hexahydro-[1,2]dithiino[4,5-b]pyridine-1(2H)-carboxylate], in data set [1], the “activation / cargo release by dithiol reductant DTT” value is recorded as “efficiently activated by dithiol-type reductants”. Besides, the “cargo release inside cells (fluorescence signal increase over time)” value in the data set with HeLa, A549 and MEF cells is on record as “do not release cargo inside cells under ordinary conditions”. Further, in data set [2], the “cargo release … with monothiol reductant GSH” value is recorded as “do not release cargo”.

As to `CC[C@@]1(O)C(=O)OCc2c1cc1n(c2=O)Cc2cc3c(CN(C)C)c(OC(=O)N4CCCC5CSSC[C@H]54)ccc3nc2-1` (mixture of isomers) [Compound P21, (R)-10-((dimethylamino)methyl)-4-ethyl-4-hydroxy-3,14-dioxo-3,4,12,14-tetrahydro-1H-pyrano[3′,4′:6,7]indolizino[1,2-b]quinolin-9-yl (cis)-hexahydro-[1,2]dithiino[4,5-b]pyridine-1(2H)-carboxylate], in the data set on HeLa cells, the “tolerability in cells compared with Irinotecan” value is “equally well-tolerated in cells as the approved cancer prodrug Irinotecan” and the “toxicity to cells compared with SN-38” value was “significantly less toxic to cells than the parent compound”.

In the case of `COc1ccc2c(c1)Oc1cc(OC(=O)N3CCC[C@@H]4CSSC[C@H]43)ccc1C21OC(=O)c2ccccc21` (mixture of isomers) [Compound P3, 3′-methoxy-3-oxo-3H-spiro[isobenzofuran-1,9′-xanthen]-6′-yl-(trans)-hexahydro-[1,2]dithiino[4,5-b]pyridine-1(2H)-carboxylate], in data set [1], the “activation / cargo release by dithiol reductant DTT” value was “efficiently activated by dithiol-type reductants”. The “cargo release … with monothiol reductant GSH” value in data set [2] is on record as “do not release cargo”.
